Experimental data reported in paper PMC9609428, “Rational Design and Synthesis of New Selective COX-2 Inhibitors with In Vivo PGE2-Lowering Activity by Tethering Benzenesulfonamide and 1,2,3-Triazole Pharmacophores to Some NSAIDs” (Pharmaceuticals, 2022).
“And” between values parts separate entries of the source, which are not always exact repeats. Equal entries are not always repeated. Marks after values point to notes of the source that are not given here.

Assays:
[1] = test system: carrageenan-induced paw edema; assay: In vivo carrageenan-induced paw edema in mice; settings: for Thickness of Edema, 0 h / percentage anti-inflammatory activity (AI%), 2 h / Thickness of Edema, 2 h / percentage anti-inflammatory activity (AI%), 4 h / Thickness of Edema, 4 h / percentage anti-inflammatory activity (AI%), 6 h / Thickness of Edema, 6 h / percentage anti-inflammatory activity (AI%), 8 h / Thickness of Edema, 8 h: 10 µmol/kg b.wt po; for Thickness of Edema, 0 h / Thickness of Edema, 2 h / Thickness of Edema, 4 h / Thickness of Edema, 6 h / Thickness of Edema, 8 h: mean ± SEM, n = 5; for percentage anti-inflammatory activity (AI%), 2 h / Thickness of Edema, 2 h: 2 h after carrageenan; for percentage anti-inflammatory activity (AI%), 4 h / Thickness of Edema, 4 h: 4 h after carrageenan; for percentage anti-inflammatory activity (AI%), 6 h / Thickness of Edema, 6 h: 6 h after carrageenan; for percentage anti-inflammatory activity (AI%), 8 h / Thickness of Edema, 8 h: 8 h after carrageenan; for ED50: Mus musculus, paw edema inhibition 8 h after carrageenan, doses 5, 10, 20, 30 and 40 µmol/kg, read-out: ED50 (95% Confidence Level)
prostaglandin E2 (PGE2) = assay: In vivo estimation of rat serum prostaglandin E2 (PGE2); settings: carrageenan-injected rats, 10 µmol/kg b.wt po, after 8 h; for PGE2 Serum Conc.: mean ± SEM, n = 5
Protocol: Measuring plasma levels of prostaglandin E2 is one of the substantial parameters in confirming the in vivo COX-2 inhibition.
(approved by HU-IACUC). For more details, see Page S16, Supplementary File. […]
4.2.4. Estimation of rat serum prostaglandin E2 (PGE2) […]
procedure using EIA PGE2 kit (Aldrich, Steinheim, Germany). The kits as well as blood samples were […]
to a monoclonal antibody to PGE2 in kit. Excess reagents were removed followed by adding the substrate was added and incubated for short time. When a yellow color generate the optical density […]

[2] = biological target: T1, (Ovis aries, UniProt P05979); assay: In vitro human COX-1 enzymatic inhibitory activity (Cayman COX inhibitor screening assay kit); assay type: biochemical; settings: mean ± SEM of triplicate determinations
T1 construct: purchased Cayman Chemicals Inc., Ann Arbor, MI, USA 560131
T1 sequence (P05979 25-600): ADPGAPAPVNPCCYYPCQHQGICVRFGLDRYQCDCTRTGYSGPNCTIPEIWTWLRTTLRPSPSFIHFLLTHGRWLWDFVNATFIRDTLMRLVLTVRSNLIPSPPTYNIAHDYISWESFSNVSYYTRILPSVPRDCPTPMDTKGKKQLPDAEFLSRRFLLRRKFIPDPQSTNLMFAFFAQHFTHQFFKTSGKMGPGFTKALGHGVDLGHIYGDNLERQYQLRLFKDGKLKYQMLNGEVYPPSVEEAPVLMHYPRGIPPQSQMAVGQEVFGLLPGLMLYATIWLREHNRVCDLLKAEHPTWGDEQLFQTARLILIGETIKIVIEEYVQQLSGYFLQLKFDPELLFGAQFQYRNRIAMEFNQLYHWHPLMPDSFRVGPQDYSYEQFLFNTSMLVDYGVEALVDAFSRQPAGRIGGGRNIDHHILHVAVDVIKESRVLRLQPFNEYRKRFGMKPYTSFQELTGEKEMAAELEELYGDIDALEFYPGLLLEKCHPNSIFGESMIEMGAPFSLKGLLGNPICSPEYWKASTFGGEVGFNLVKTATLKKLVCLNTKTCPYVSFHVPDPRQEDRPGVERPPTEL
Protocol: (§1) Inhibitory activities were defined as a test compound concentration achieving 50% human COX-1 or human COX-2 inhibition. The selectivity of compounds was referred to as a compound’s selectivity index values calculated as IC50 (COX-1)/IC50 (COX-2).
(§2) In vitro human COX-1 and human COX-2 enzymatic inhibitory activity of the tested compounds as well as the reference drugs was carried out according to the previously mentioned procedures; for details, see Page S15, Supplementary File.
(§3) 4.2. Biological screening
(§4) 4.2.1. In vitro human COX-1 and human COX-2 enzymatic inhibitory activities In vitro human COX-1 and human COX-2 enzymatic inhibitory activity of the tested compounds as well as the reference drugs was carried out according to the previously mentioned procedures [1][2]depending on Cayman colorimetric COX (ovine) inhibitor screening assay kit (Catalog No.
(§5) All reagents, test solutions and experimental procedures were performed in correspondence to both the manufacturer’s instructions and previously reported methods. Briefly, […] of different concentrations of tested compound solutions were added to a series of supplied reaction buffer solutions (960 µL, 0.1 M Tris-HCl, pH 8.0 containing 5 mM EDTA and 2 mM phenol) with either COX-1 or COX-2 (10 µL) enzyme in the presence of heme (10 µL). 10 µL of Arachidonic Acid (100 µM) solution were added to the mixtures of the enzyme and tested compounds, After incubating for 5 min at 25 °C followed by stopping COX reaction by adding of 50 µL of 1 M HCl. Moreover, after adding 100 µL of saturated stannous chloride solution, the absorbance was measured spectrophotometrically using plate reader. measuring the […]
(§6) percentage of human COX-1 or human COX-2 enzymatic inhibition of five different concentrations of each compound and then concentration-inhibition response curve were plotted to obtain IC50 values(three determinations). […]

human COX-2 = biological target: T2, human COX-2 (Homo sapiens, UniProt P35354); assay: In vitro human COX-2 enzymatic inhibitory activity (Cayman COX inhibitor screening assay kit); assay type: biochemical; settings: for SI COX-1/COX-2: COX-2 selectivity index: COX-1 IC50/COX-2 IC50; for IC50: mean ± SEM of triplicate determinations
T2 construct: purchased Cayman Chemicals Inc., Ann Arbor, MI, USA 560131
T2 sequence (P35354 18-604): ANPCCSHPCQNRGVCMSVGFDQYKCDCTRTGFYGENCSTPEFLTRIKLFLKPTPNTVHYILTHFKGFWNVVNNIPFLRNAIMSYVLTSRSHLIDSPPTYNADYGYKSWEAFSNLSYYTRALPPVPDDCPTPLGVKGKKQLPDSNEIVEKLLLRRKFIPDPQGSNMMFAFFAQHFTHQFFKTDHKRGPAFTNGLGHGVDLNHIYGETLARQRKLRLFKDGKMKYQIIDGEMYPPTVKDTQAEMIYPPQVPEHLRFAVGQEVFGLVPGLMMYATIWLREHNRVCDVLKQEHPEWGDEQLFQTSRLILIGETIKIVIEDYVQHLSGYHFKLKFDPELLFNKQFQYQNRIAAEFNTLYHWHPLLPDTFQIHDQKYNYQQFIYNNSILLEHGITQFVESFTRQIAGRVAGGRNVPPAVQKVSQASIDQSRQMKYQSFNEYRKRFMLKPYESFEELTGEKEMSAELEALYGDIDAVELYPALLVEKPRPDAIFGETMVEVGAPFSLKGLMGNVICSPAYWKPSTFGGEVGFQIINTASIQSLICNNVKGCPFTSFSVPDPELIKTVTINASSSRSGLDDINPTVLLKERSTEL
Protocol: as §1, §2, §3, §4, §5, §6

IC50 [2]	SI COX-1/COX-2 (human COX-2)	IC50 (human COX-2)	melting point	SMILES	Thickness of Edema, 0 h [1]	percentage anti-inflammatory activity (AI%), 2 h [1]	Thickness of Edema, 2 h [1]	percentage anti-inflammatory activity (AI%), 4 h [1]	Thickness of Edema, 4 h [1]	percentage anti-inflammatory activity (AI%), 6 h [1]	Thickness of Edema, 6 h [1]	percentage anti-inflammatory activity (AI%), 8 h [1]	Thickness of Edema, 8 h [1]	ED50 [1]	% Inhibition of PGE2 production (prostaglandin E2 (PGE2))	PGE2 Serum Conc. (prostaglandin E2 (PGE2))	% Inhibition of PGE2 production (prostaglandin E2 (PGE2); listed as celecoxib)
–	–	–	–	Cc1ccc(-c2cc(C(F)(F)F)nn2-c2ccc(S(N)(=O)=O)cc2)cc1 [Celecoxib, celecoxib, reference compound]	2.10 ± 0.005 mm	70.86%	2.54 ± 0.007 mm	79.27%	2.44 ± 0.011 mm	87.28%	2.32 ± 0.010 mm	89.01%	2.30 ± 0.009 mm	16.2 µmol/kg	78.62%	157.245 ± 7.33 ^c,d pg/mL	78.62%
5930 ± 88.2 nM	65.89	90 ± 0.6 nM	–	[N-]=[N+]=Nc1ccc(S(=O)(=O)Nc2ncccn2)cc1 [Compound 1c, 4-Azido-N-(pyrimidin-2-yl)benzenesulfonamide]	–	–	–	–	–	–	–	–	–	–	–	–	–
4600 ± 115 nM	46	100 ± 3.3 nM	–	Cc1ccnc(NS(=O)(=O)c2ccc(N=[N+]=[N-])cc2)n1 [Compound 1d, 4-Azido-N-(4-methylpyrimidin-2-yl)benzenesulfonamide]	–	–	–	–	–	–	–	–	–	–	–	–	–
8230 ± 66.7 nM	91.44	90 ± 0.3 nM	233 to 235 °C	CC(=O)c1nnn(-c2ccc(S(=O)(=O)Nc3ncccn3)cc2)c1C [Compound 4c, 4-(4-Acetyl-5-methyl-1H-1,2,3-triazol-1-yl)-N-(pyrimidin-2-yl)benzenesulfonamide]	–	–	–	–	–	–	–	–	–	–	–	–	–
9270 ± 66.7 nM	84.27	110 ± 5.7 nM	241 to 243 °C	CC(=O)c1nnn(-c2ccc(S(=O)(=O)Nc3nccc(C)n3)cc2)c1C [Compound 4d, 4-(4-Acetyl-5-methyl-1H-1,2,3-triazol-1-yl)-N-(4-methylpyrimidin-2-yl)benzenesulfonamide]	–	–	–	–	–	–	–	–	–	–	–	–	–
9130 ± 88.2 nM	114.13	80 ± 0.6 nM	205 to 207 °C	CC(=NNC(=O)C(C)c1ccc(CC(C)C)cc1)c1nnn(-c2ccc(S(N)(=O)=O)cc2)c1C (stereo not shown) [Compound 6a, 4-(4-(1-(2-(2-(4-Isobutylphenyl)propanoyl)hydrazineylidene)ethyl)-5-methyl-1H-1,2,3-triazol-1-yl)benzenesulfonamide]	–	–	–	–	–	–	–	–	–	–	–	–	–
–	–	–	–	O=C(O)Cc1ccccc1Nc1c(Cl)cccc1Cl [Diclofenac, diclofenac, reference compound]	2.08 ± 0.006 mm	41.72%	2.96 ± 0.009 mm	55.49%	2.81 ± 0.009 mm	67.63%	2.64 ± 0.01 mm	72.53%	2.58 ± 0.01 mm	18.4 µmol/kg	72.27%	203.973 ± 6.35 ^c,d pg/mL	–

SMILES	IC50 [2]	SI COX-1/COX-2 (human COX-2)	IC50 (human COX-2)	melting point	Thickness of Edema, 0 h [1]	percentage anti-inflammatory activity (AI%), 2 h [1]	Thickness of Edema, 2 h [1]	percentage anti-inflammatory activity (AI%), 4 h [1]	Thickness of Edema, 4 h [1]	percentage anti-inflammatory activity (AI%), 6 h [1]	Thickness of Edema, 6 h [1]	percentage anti-inflammatory activity (AI%), 8 h [1]	Thickness of Edema, 8 h [1]	ED50 [1]	% Inhibition of PGE2 production (prostaglandin E2 (PGE2))	PGE2 Serum Conc. (prostaglandin E2 (PGE2))	% Inhibition of PGE2 production (prostaglandin E2 (PGE2); listed as celecoxib)
CC(=NNC(=O)C(C)c1ccc(CC(C)C)cc1)c1nnn(-c2ccc(S(=O)(=O)Nc3nccs3)cc2)c1C (stereo not shown) [Compound 6b, 4-(4-(1-(2-(2-(4-Isobutylphenyl)propanoyl)hydrazineylidene)ethyl)-5-methyl-1H-1,2,3-triazol-1-yl)-N-(thiazol-2-yl)benzenesulfonamide]	13170 ± 120 nM	329 and 329.25	40 ± 0.7 nM	–	2.14 ± 0.006 mm	86.75%	2.34 ± 0.009 mm	94.51%	2.23 ± 0.009 mm	97.69%	2.18 ± 0.009 mm	99.45%	2.15 ± 0.007 mm	11.7 µmol/kg	90.70%	68.388 ± 7.13 ^c,d pg/mL	–
CC(=NNC(=O)Cc1ccccc1Nc1c(Cl)cccc1Cl)c1nnn(-c2ccc(S(=O)(=O)Nc3nccs3)cc2)c1C [Compound 6e, 4-(4-(1-(2-(2-(2-((2,6-Dichlorophenyl)amino)phenyl)acetyl)hydrazineylidene)ethyl)-5-methyl-1H-1,2,3-triazol-1-yl)-N-(thiazol-2-yl)benzenesulfonamide]	10230 ± 33.3 nM	204 and 204.6	50 ± 0.6 nM	–	2.12 ± 0.007 mm	58.28%	2.75 ± 0.008 mm	68.90%	2.63 ± 0.010 mm	75.72%	2.54 ± 0.009 mm	78.02%	2.52 ± 0.006 mm	18.2 µmol/kg	74.80%	185.329 ± 6.79 ^c,d pg/mL	–
CC(=NNC(=O)c1ccccc1O)c1nnn(-c2ccc(S(=O)(=O)Nc3nccc(C)n3)cc2)c1C [Compound 6j, 4-(4-(1-(2-(2-Hydroxybenzoyl)hydrazineylidene)ethyl)-5-methyl-1H-1,2,3-triazol-1-yl)-N-(4-methylpyrimidin-2-yl)benzenesulfonamide]	12500 ± 57.7 nM	312 and 312.5	40 ± 0.6 nM	–	2.08 ± 0.007 mm	73.51%	2.48 ± 0.005 mm	82.32%	2.37 ± 0.009 mm	88.44%	2.28 ± 0.011 mm	91.21%	2.24 ± 0.009 mm	13.4 µmol/kg	86.34%	100.435 ± 5.66 ^c,d pg/mL	–
